Reference: the kinase profiling compilation of Christmann-Franck et al. (2016)

Key:
Assay in all cases: radiometric filter-binding kinase assay
TAOK1 (human) = TAOK1 (human) (UniProt Q7L7X3)
AURKA (human) = AURKA (human) (UniProt O14965)
EPHB2 (human) = EPHB2 (human) (UniProt P29323)
PIM1 (human) = PIM1 (human) (UniProt P11309)
[1] = tested on: AKT1 (human), P31749 [S473D]
BRSK2 (human) = BRSK2 (human) (UniProt Q8IWQ3)
EPHB4 (human) = EPHB4 (human) (UniProt P54760)
MAPK8 (human) = MAPK8 (human) (UniProt P45983)
GCK (human) = GCK (human) (UniProt Q12851)
JAK2 JH1 JH2 (human) = JAK2 JH1 JH2 (human) (UniProt O60674)
Sequence of JAK2 JH1 JH2 (human) (O60674 whole entry, looked up): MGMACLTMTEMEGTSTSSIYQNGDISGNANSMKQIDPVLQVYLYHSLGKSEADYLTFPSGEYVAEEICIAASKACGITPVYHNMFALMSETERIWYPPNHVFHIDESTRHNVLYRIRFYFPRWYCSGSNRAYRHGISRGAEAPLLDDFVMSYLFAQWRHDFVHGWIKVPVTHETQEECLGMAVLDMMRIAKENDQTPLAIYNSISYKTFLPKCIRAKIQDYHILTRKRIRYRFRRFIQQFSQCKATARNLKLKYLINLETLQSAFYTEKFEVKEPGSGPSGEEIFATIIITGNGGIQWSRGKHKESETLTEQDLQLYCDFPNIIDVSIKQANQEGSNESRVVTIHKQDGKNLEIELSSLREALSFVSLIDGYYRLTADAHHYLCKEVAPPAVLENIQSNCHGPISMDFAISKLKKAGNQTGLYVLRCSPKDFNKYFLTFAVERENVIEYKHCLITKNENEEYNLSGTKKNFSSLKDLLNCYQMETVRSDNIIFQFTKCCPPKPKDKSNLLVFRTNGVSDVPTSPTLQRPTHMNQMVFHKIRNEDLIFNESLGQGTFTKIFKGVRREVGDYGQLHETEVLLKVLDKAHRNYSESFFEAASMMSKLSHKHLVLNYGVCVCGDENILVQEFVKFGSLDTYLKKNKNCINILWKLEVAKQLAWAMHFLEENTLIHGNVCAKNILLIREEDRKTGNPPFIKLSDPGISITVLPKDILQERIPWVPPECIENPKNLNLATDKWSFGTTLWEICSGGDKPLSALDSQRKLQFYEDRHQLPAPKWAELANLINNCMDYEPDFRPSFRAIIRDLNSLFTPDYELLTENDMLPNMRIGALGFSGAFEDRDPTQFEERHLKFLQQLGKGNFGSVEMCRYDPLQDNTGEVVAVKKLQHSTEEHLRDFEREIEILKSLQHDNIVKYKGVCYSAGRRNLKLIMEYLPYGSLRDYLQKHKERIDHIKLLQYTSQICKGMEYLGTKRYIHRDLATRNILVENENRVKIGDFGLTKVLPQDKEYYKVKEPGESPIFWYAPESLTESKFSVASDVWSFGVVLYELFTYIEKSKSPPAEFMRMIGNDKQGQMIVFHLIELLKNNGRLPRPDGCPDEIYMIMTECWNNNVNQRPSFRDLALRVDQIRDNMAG

HIPK2 (human) = HIPK2 (human) (UniProt Q9H2X6)
MAPK10 (human) = MAPK10 (human) (UniProt P53779)
FLT1 (human) = FLT1 (human) (UniProt P17948)
HIPK1 (human) = HIPK1 (human) (UniProt Q86Z02)
DYRK3 (human) = DYRK3 (human) (UniProt O43781)
INSR (human) = INSR (human) (UniProt P06213)
Sequence of INSR (human) (P06213 whole entry, looked up): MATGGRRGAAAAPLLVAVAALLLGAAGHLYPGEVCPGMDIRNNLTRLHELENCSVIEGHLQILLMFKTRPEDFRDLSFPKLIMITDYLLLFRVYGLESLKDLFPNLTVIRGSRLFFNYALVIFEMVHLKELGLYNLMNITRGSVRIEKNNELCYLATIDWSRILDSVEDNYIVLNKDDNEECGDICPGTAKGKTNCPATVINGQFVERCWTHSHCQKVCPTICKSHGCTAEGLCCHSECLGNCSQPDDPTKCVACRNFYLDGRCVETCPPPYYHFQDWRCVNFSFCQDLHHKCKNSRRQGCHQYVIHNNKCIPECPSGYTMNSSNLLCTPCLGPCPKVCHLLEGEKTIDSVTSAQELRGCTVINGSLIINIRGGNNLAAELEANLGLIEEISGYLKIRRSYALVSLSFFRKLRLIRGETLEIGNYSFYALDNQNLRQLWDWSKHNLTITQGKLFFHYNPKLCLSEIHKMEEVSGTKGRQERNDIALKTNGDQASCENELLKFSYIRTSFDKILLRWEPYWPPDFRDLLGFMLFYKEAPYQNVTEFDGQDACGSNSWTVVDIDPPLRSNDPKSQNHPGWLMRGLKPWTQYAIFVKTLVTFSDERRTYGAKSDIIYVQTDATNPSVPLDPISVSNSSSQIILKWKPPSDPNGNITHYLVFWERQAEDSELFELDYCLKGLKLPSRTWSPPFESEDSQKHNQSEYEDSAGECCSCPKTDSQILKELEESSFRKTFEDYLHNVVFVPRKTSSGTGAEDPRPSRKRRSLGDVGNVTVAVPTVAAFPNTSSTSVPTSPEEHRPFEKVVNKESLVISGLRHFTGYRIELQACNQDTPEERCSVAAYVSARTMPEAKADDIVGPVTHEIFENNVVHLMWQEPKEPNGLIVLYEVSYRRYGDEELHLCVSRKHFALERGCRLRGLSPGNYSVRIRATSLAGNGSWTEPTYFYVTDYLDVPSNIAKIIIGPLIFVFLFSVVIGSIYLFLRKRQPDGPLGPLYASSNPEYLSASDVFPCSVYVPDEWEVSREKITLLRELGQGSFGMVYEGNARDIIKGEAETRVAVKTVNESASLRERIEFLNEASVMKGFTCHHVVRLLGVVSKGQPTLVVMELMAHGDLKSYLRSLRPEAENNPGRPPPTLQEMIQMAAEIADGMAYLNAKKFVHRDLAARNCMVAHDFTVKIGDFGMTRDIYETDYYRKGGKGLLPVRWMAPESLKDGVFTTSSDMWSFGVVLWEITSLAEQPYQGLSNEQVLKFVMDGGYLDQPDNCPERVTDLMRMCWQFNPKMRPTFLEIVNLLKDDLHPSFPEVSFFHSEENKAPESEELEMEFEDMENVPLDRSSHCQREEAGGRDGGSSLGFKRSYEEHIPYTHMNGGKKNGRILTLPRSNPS

DYRK2 (human) = DYRK2 (human) (UniProt Q92630)
MAPKAPK5 (human) = MAPKAPK5 (human) (UniProt Q8IW41)
MAPK9 (human) = MAPK9 (human) (UniProt P45984); conditions: compound 10.0 µM
YES1 (human) = YES1 (human) (UniProt P07947)
MAP3K5 (human) = MAP3K5 (human) (UniProt Q99683)
EPHB1 (human) = EPHB1 (human) (UniProt P54762)
Sequence of EPHB1 (human) (P54762 whole entry, looked up): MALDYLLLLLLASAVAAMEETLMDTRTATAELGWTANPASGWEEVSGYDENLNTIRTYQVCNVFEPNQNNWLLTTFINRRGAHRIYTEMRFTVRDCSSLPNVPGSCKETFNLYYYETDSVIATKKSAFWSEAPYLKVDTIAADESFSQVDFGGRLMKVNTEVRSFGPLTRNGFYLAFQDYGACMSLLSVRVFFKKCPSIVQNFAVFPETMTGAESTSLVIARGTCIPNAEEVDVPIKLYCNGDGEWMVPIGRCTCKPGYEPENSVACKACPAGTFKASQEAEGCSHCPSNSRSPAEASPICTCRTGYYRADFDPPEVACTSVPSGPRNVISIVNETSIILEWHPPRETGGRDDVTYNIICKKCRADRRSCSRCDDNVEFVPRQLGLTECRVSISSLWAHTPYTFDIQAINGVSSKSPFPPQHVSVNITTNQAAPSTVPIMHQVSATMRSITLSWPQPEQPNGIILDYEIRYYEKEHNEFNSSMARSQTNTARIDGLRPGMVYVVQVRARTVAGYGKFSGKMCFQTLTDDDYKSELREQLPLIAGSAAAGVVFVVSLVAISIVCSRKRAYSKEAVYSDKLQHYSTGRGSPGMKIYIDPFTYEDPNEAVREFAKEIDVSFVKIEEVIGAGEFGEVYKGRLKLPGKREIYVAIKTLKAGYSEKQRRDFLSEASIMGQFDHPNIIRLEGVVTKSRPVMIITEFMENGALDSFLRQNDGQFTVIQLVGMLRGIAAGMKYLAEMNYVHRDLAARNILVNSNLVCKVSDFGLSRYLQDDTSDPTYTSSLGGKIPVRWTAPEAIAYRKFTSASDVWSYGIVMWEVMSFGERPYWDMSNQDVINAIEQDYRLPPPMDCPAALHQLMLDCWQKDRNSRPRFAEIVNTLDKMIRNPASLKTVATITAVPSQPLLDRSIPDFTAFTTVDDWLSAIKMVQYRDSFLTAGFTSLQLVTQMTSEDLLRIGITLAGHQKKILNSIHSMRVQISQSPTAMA

TBK1 (human) = TBK1 (human) (UniProt Q9UHD2)
Sequence of TBK1 (human) (Q9UHD2 whole entry, looked up): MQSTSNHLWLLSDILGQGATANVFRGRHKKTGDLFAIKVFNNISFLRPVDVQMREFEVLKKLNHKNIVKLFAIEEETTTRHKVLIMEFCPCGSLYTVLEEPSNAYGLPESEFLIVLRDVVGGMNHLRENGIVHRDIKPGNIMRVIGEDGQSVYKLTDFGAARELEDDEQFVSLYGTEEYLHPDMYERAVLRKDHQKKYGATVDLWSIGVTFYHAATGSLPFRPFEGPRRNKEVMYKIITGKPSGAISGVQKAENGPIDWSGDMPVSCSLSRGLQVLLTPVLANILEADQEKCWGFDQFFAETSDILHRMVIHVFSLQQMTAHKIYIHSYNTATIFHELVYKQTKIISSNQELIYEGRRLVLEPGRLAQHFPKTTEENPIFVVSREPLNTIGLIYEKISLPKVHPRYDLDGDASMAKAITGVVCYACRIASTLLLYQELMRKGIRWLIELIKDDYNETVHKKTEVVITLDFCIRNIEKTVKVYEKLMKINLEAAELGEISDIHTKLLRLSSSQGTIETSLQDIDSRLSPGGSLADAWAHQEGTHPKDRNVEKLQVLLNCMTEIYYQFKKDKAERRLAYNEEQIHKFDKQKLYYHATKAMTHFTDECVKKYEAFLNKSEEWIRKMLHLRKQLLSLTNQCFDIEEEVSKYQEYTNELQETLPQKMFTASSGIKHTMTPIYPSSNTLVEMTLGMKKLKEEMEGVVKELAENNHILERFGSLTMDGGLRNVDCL

EPHA2 (human) = EPHA2 (human) (UniProt P29317)
MAP3K11 (human) = MAP3K11 (human) (UniProt Q16584)
SYK (human) = SYK (human) (UniProt P43405)
PRKCA (human) = PRKCA (human) (UniProt P17252)
BRSK1 (human) = BRSK1 (human) (UniProt Q8TDC3)
Sequence of BRSK1 (human) (Q8TDC3 whole entry, looked up): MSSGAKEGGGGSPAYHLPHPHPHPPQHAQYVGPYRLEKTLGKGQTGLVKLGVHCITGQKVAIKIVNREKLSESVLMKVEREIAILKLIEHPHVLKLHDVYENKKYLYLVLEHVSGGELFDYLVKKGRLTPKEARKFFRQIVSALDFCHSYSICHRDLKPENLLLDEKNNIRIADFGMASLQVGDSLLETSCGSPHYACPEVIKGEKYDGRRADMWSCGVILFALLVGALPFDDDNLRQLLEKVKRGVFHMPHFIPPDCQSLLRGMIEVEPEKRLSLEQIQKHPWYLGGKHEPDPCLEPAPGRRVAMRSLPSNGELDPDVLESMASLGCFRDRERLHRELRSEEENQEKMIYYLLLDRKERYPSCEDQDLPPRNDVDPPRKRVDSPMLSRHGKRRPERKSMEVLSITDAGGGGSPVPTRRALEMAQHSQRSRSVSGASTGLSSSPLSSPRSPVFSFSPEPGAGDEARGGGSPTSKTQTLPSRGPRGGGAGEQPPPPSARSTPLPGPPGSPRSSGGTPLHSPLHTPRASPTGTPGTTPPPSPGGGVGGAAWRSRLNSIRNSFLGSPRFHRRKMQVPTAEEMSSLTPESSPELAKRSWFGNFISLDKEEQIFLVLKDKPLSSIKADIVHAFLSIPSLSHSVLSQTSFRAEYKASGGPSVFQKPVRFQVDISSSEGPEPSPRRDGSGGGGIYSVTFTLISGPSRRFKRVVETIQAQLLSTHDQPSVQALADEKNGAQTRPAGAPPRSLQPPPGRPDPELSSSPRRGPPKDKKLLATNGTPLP

MAPK11 (human) = MAPK11 (human) (UniProt Q15759)
CaMK1 (human) = CaMK1 (human) (UniProt Q14012); conditions: compound 1.0 µM
MAP3K1 (human) = MAP3K1 (human) (UniProt Q13233)
[2] = tested on: RPS6KB1 (human), P23443 [T412E]
STK3 (human) = STK3 (human) (UniProt Q13188)
MARK3 (human) = MARK3 (human) (UniProt P27448)
MAP2K1 (human) = MAP2K1 (human) (UniProt Q02750)

Q: With `CC(C)(C#N)c1ccc(N2C(=O)OCc3cnc4ccc(-c5cnc6ccccc6c5)cc4c32)cc1` as the compound, how does the residual activity (TAOK1 (human); compound 1.0 µM) read?
A: The residual activity was 91%.

Q: What about the residual activity (TAOK1 (human); compound 10.0 µM) of the same compound?
A: The residual activity was 94%.

Q: And the residual activity (AURKA (human); compound 1.0 µM)?
A: Its residual activity is 101%.

Q: And the residual activity (AURKA (human); compound 10.0 µM)?
A: The residual activity was 108%.

Q: And the residual activity (EPHB2 (human); compound 1.0 µM)?
A: The residual activity was 93%.

Q: And the residual activity (EPHB2 (human); compound 10.0 µM)?
A: The residual activity was 95%.

Q: What about the residual activity (PIM1 (human); compound 1.0 µM) of the same compound?
A: The residual activity was 81%.

Q: What about the residual activity (PIM1 (human); compound 10.0 µM) of the same compound?
A: Its residual activity is 73%.

Q: And the residual activity ([1]; compound 1.0 µM)?
A: The residual activity was 102%.

Q: And the residual activity ([1]; compound 10.0 µM)?
A: The residual activity was 117%.

Q: What about the residual activity (BRSK2 (human); compound 1.0 µM) of the same compound?
A: Its residual activity is 89%.

Q: And the residual activity (BRSK2 (human); compound 10.0 µM)?
A: Its residual activity is 100%.

Q: What about the residual activity (EPHB4 (human); compound 1.0 µM) of the same compound?
A: The residual activity was 102%.

Q: What about the residual activity (EPHB4 (human); compound 10.0 µM) of the same compound?
A: The residual activity was 96%.

Q: And the residual activity (MAPK8 (human); compound 1.0 µM)?
A: Its residual activity is 106%.

Q: And the residual activity (MAPK8 (human); compound 10.0 µM)?
A: The residual activity was 109%.

Q: And the residual activity (GCK (human); compound 1.0 µM)?
A: Its residual activity is 22%.

Q: And the residual activity (GCK (human); compound 10.0 µM)?
A: The residual activity was 11%.

Q: And the residual activity (JAK2 JH1 JH2 (human); compound 1.0 µM)?
A: Its residual activity is 26%.

Q: What about the residual activity (JAK2 JH1 JH2 (human); compound 10.0 µM) of the same compound?
A: Its residual activity is 31%.

Q: What about the residual activity (HIPK2 (human); compound 1.0 µM) of the same compound?
A: The residual activity was 99%.

Q: What about the residual activity (HIPK2 (human); compound 10.0 µM) of the same compound?
A: Its residual activity is 114%.

Q: And the residual activity (MAPK10 (human); compound 1.0 µM)?
A: Its residual activity is 87%.

Q: What about the residual activity (MAPK10 (human); compound 10.0 µM) of the same compound?
A: The residual activity was 77%.

Q: And the residual activity (FLT1 (human); compound 1.0 µM)?
A: The residual activity was 87%.

Q: What about the residual activity (FLT1 (human); compound 10.0 µM) of the same compound?
A: Its residual activity is 107%.

Q: What about the residual activity (HIPK1 (human); compound 1.0 µM) of the same compound?
A: Its residual activity is 94%.

Q: And the residual activity (HIPK1 (human); compound 10.0 µM)?
A: Its residual activity is 97%.

Q: And the residual activity (DYRK3 (human); compound 1.0 µM)?
A: Its residual activity is 57%.

Q: What about the residual activity (DYRK3 (human); compound 10.0 µM) of the same compound?
A: Its residual activity is 64%.

Q: What about the residual activity (INSR (human); compound 1.0 µM) of the same compound?
A: The residual activity was 96%.

Q: What about the residual activity (INSR (human); compound 10.0 µM) of the same compound?
A: The residual activity was 96%.

Q: And the residual activity (DYRK2 (human); compound 1.0 µM)?
A: Its residual activity is 73%.

Q: What about the residual activity (DYRK2 (human); compound 10.0 µM) of the same compound?
A: Its residual activity is 85%.

Q: What about the residual activity (MAPKAPK5 (human); compound 1.0 µM) of the same compound?
A: The residual activity was 82%.

Q: And the residual activity (MAPKAPK5 (human); compound 10.0 µM)?
A: The residual activity was 89%.

Q: And the residual activity (MAPK9 (human))?
A: Its residual activity is 97%.

Q: And the residual activity (YES1 (human); compound 1.0 µM)?
A: Its residual activity is 92%.

Q: What about the residual activity (YES1 (human); compound 10.0 µM) of the same compound?
A: The residual activity was 93%.

Q: What about the residual activity (MAP3K5 (human); compound 1.0 µM) of the same compound?
A: Its residual activity is 117%.

Q: And the residual activity (MAP3K5 (human); compound 10.0 µM)?
A: The residual activity was 111%.

Q: And the residual activity (EPHB1 (human); compound 1.0 µM)?
A: The residual activity was 93%.

Q: And the residual activity (EPHB1 (human); compound 10.0 µM)?
A: The residual activity was 119%.

Q: What about the residual activity (TBK1 (human); compound 1.0 µM) of the same compound?
A: The residual activity was 83%.

Q: What about the residual activity (TBK1 (human); compound 10.0 µM) of the same compound?
A: Its residual activity is 96%.

Q: And the residual activity (EPHA2 (human); compound 1.0 µM)?
A: The residual activity was 69%.

Q: What about the residual activity (EPHA2 (human); compound 10.0 µM) of the same compound?
A: The residual activity was 81%.

Q: What about the residual activity (MAP3K11 (human); compound 1.0 µM) of the same compound?
A: The residual activity was 81%.

Q: And the residual activity (MAP3K11 (human); compound 10.0 µM)?
A: Its residual activity is 83%.

Q: What about the residual activity (SYK (human); compound 1.0 µM) of the same compound?
A: Its residual activity is 105%.

Q: What about the residual activity (SYK (human); compound 10.0 µM) of the same compound?
A: The residual activity was 76%.

Q: And the residual activity (PRKCA (human); compound 1.0 µM)?
A: The residual activity was 101%.

Q: And the residual activity (PRKCA (human); compound 10.0 µM)?
A: The residual activity was 94%.

Q: And the residual activity (BRSK1 (human); compound 1.0 µM)?
A: The residual activity was 97%.

Q: What about the residual activity (BRSK1 (human); compound 10.0 µM) of the same compound?
A: Its residual activity is 86%.

Q: What about the residual activity (MAPK11 (human); compound 1.0 µM) of the same compound?
A: The residual activity was 89%.

Q: And the residual activity (MAPK11 (human); compound 10.0 µM)?
A: The residual activity was 103%.

Q: What about the residual activity (CaMK1 (human)) of the same compound?
A: Its residual activity is 73%.

Q: And the residual activity (MAP3K1 (human); compound 1.0 µM)?
A: The residual activity was 69%.

Q: And the residual activity (MAP3K1 (human); compound 10.0 µM)?
A: The residual activity was 85%.

Q: And the residual activity ([2]; compound 1.0 µM)?
A: The residual activity was 91%.

Q: And the residual activity ([2]; compound 10.0 µM)?
A: Its residual activity is 96%.

Q: And the residual activity (STK3 (human); compound 1.0 µM)?
A: The residual activity was 64%.

Q: What about the residual activity (STK3 (human); compound 10.0 µM) of the same compound?
A: The residual activity was 49%.

Q: And the residual activity (MARK3 (human); compound 1.0 µM)?
A: Its residual activity is 93%.

Q: And the residual activity (MARK3 (human); compound 10.0 µM)?
A: Its residual activity is 102%.

Q: What about the residual activity (MAP2K1 (human); compound 1.0 µM) of the same compound?
A: The residual activity was 78%.

Q: And the residual activity (MAP2K1 (human); compound 10.0 µM)?
A: The residual activity was 96%.
